{"source": "patent US10513534B2", "about": "“2′-chloro nucleoside analogs for HCV infection” (priority 2012, dated 2019)", "key": {"[1]": {"experiment": "Liver triphosphate pharmacokinetics after single oral dose in cynomolgus monkeys", "format": "in vivo", "settings": "6 hours post dose, 10 mg/kg oral, normalized to 1 μmol/kg dose", "method": "For each compound, a single oral dose at 10 mg/kg in PEG 200 (dose volume 3 mL/kg) was administered to cynomolgus monkeys. Untreated animals were used for the collection of control liver. Plasma samples were collected at 0.5, 1, 2, 4, 6, 8, 12 and 24 hours for compound 37, diastereomer 2.\nLiver samples were analyzed for the relevant nucleoside triphosphate by LC-MS/MS. […] Appropriate internal standard solution was added to the homogenate followed by neutralization with 20% ammonium hydroxide solution and addition of 500 μL 1% formic acid. The tissue samples were extracted by weak anion exchange solid phase extraction (SPE). Post extraction, the eluates were evaporated under nitrogen, followed by reconstitution before injection onto the LC-MS/MS system."}, "fresh human hepatocytes": {"test_system": "fresh human hepatocytes", "experiment": "Release of active metabolite in fresh human hepatocytes", "format": "in vitro ADME", "settings": "10 μM", "method": "Plates of fresh human and mouse hepatocytes were obtained on ice. The medium was removed and replaced with hepatocyte culture medium (William's E supplemented with penicillin-streptomycin, 1% L-glutamine, 1% insulin-transferrin-selenium and 0.1 μM Dexamethasone (Invitrogen) or with Invitro GRO HI medium complemented with Torpedo antibiotics (Celsis)). Cells were left overnight in an incubator at 37° C. to acclimatize to culture and the medium.\nHepatocyte incubations were conducted at a final volume of 0.5 mL hepatocyte culture medium/well (0.8 million cells/well for human and 0.5 million cells/well for mouse; 12 well plate no overlay, collagen coat). Culture medium from overnight incubation of cells was removed and replaced with fresh medium, pre-warmed to 37° C., containing 10 μM of test compound from a stock solution in DMSO (final DMSO concentration was 0.1%). At each specific time point, incubation medium was removed and cell monolayers were carefully washed two times with ice-cold PBS. Following the last wash, all PBS was carefully removed and 1.0 mL of extraction solution (ice-cold 70% methanol/30% water) added. Cells were scraped off and suspended in the extraction solution, transferred to 2 mL polypropylene microfuge tubes and intracellular contents extracted overnight at −20° C.\nAfter the overnight treatment the cellular extracts were prepared by centrifugation at 16,000×g for 10 min to remove cellular debris. The remaining sample was then dried using a refrigerated centrivap concentrator. Dry extracts were reconstituted in 1000 μL of HPLC-grade water and centrifuged at 16,000×g for 10 min. Aliquots (100 μL each) of the supernatant were transferred into a 96 well plate and internal standard (4 ng/mL final concentration) was added as the internal standard (IS) for LC-MS/MS analysis.\nThe incubation time points were 6, 24 and 48 hours for human hepatocytes and 1, 4, 8, 12 and 24 hours for mouse hepatocytes."}, "Zluc cells": {"test_system": "Zluc cells", "experiment": "Cytotoxicity evaluation, CellTiter-Blue Cell Viability Assay", "settings": "Zluc cells, CellTiter-Blue"}, "HCV genotype 1b replicon": {"test_system": "HCV genotype 1b replicon", "experiment": "HCV replicon assay (Zluc luciferase)", "format": "cell-based", "settings": "Zluc cells, 72 hours; read-out: HCV Replicon EC50", "procedure,_shortened": "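Zluc Huh-7 cells with HCV genotype 1b replicon and luciferase reporter treated with 5-fold dilutions (100 μM to 0.0000512 μM final) in duplicate, or at 1 and 10 μM. Luminescence read with ONE-glo; EC50 from dose-response fits, or % inhibition at the fixed concentrations.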"}, "[2]": {"experiment": "Stability in liver microsomes", "format": "in vitro ADME", "settings": "human liver microsomes 1.0 mg/mL, 10 μM, NADPH, 60 min", "method": "Stability of test compounds were determined in human liver and intestinal microsomes in duplicate for each matrix. Pooled liver and intestinal microsomal proteins (1.0 mg/mL), suspended in incubation buffer (100 mM potassium phosphate, pH 7.4, 5 mM MgCl2, and 0.1 mM EDTA), were preincubated for 5 min at 37° C. with 10 μM of a test compound from a 10 mM stock solution in DMSO (final DMSO concentration was 0.1%); the reaction was initiated by the addition of NADPH (3 mM final concentration). At specific times (0 and 60 min), 0.1 mL samples were taken and the reaction terminated by the addition of 4 volumes of stop solution (acetonitrile with 500 ng/mL carbutamide as an internal standard). The samples were vortexed for 30 sec and then centrifuged at 16000×g for 10 min. 100 μL of supernatants were transferred to 96 deep-well plates preloaded with 100 μL distilled water and analyzed after mixing by LC-MS/MS. The MS peak area ratio of the test compound versus the internal standard was calculated and percent unchanged test compound over 60 minutes was calculated using this ratio."}, "[3]": {"experiment": "Stability in fresh whole blood", "format": "in vitro ADME", "settings": "human whole blood, 0.5 μM", "method": "Stability of the test compounds was determined in fresh human whole blood with K2EDTA as the anticoagulant (stored refrigerated at 2-8° C. and used within 7 days of receipt). The experiment was conducted with three replicates for each time point. Whole blood, pre-incubated at 37° C. for 10-15 minutes, was fortified with a solution of test compound for a final concentration of 0.5 μM and mixed for 30 sec. At intervals (0, 0.5, 1 and 2 hr), three […] aliquots were combined with 200 μL (each) of an ice-cold solution of the internal standard (carbutamide 500 ng/mL in acetonitrile). The samples were vortexed for 30 sec and then centrifuged at 16100×g for 5 min. The supernatant was analyzed by LC-MS/MS. The MS peak area ratio of the test compound versus the internal standard was calculated and percent unchanged test compound was calculated for each time point using this ratio."}}, "data": [{"smiles": "CC(C)OC(=O)[C@H](C)NP(=O)(OC[C@H]1O[C@@H](n2ccc(=O)[nH]c2=O)[C@](C)(Cl)[C@@H]1O)Oc1ccccc1", "note": "(single isomer, unassigned) [Compound 40ii Diastereomer 2]", "values": [{"measurement": "Nucleoside triphosphate in Liver C6", "setting": "[1]", "value": "++++ (100 < ++++)"}, {"measurement": "FHH TP AUC", "setting": "fresh human hepatocytes", "value": "++++ (1500 < ++++)"}, {"measurement": "FHH TP Cmax", "setting": "fresh human hepatocytes", "value": "++++ (100 < ++++)"}, {"measurement": "FHH TP (6 hr)", "setting": "fresh human hepatocytes; 6 hr", "value": "++++ (100 < ++++)"}, {"measurement": "FHH TP (24 hr)", "setting": "fresh human hepatocytes; 24 hr", "value": "+++ (50 < +++ ≤ 100)"}, {"measurement": "FHH TP (48 hr)", "setting": "fresh human hepatocytes; 48 hr", "value": "+++ (50 < +++ ≤ 100)"}, {"measurement": "CC50", "setting": "Zluc cells", "value": "> 50", "unit": "µM"}, {"measurement": "EC50", "setting": "HCV genotype 1b replicon", "value": "< 0.25", "unit": "µM"}, {"measurement": "HLM (1 hr) stability (percent remaining)", "setting": "[2]", "value": "++ (25% < ++ ≤ 50%)"}, {"measurement": "WB_Human (37° C.; 2 hr) stability (percent remaining)", "setting": "[3]", "value": "++++ (75% < ++++)"}]}]}
